Experiments:
[1] = test system: IL-1β mRNA level in HEK-293T cells; conditions: human
[2] = test system: CCL2 mRNA level in HEK-293T cells; conditions: human
[3] = Size, polydispersity index and surface charge of mRNA-LNP (Malvern Zetasizer Nano ZS90); type: physicochemical; conditions: for PDI / size (nm) Number: mRNA-LNP made with the ionizable lipid at its optimal formulation (Table 2); for size (nm) Number: diluted with PBS to 1 μg/mL mRNA; for Zeta (mV): surface charge of mRNA-LNP made with the ionizable lipid at its optimal formulation (Table 2)
Description: Each mRNA-LNPs produced in Example 27 was diluted with PBS to a final mRNA concentration of 1 μg/mL. The size, polydispersity index (PDI), and surface charge of the mRNA-LNPs were then measured using a Malvern Zetasizer Nano ZS90 (Malvern Instruments, UK).
For particles intended for systemic administration, such as via blood vessels, the particle size must be less than 200 nm in order to pass through the endothelial capillaries of the liver. In addition, the size distribution is considered uniform only when the PDI is 0.3 or less, which enables consistent and efficient therapeutic effects (Non-patent document 3 [Danaei, M. et al). Pharmaceutics 2018, 10, 57]).

[4] = test system: IL-6 mRNA level in HEK-293T cells; conditions: human
[5] = Stability of mRNA-LNPs according to storage temperature and duration; type: physicochemical; conditions: for Normalized EE % D-1 / Size (nm) D-1 / PDI D-1: day 1; for Normalized EE % D-7 / PDI D-7 / Size (nm) D-7: day 7; for Normalized EE % D-30 / PDI D-30 / Size (nm) D-30: day 30
Description: Stability of fLuc mRNA-LNPs produced using various ionizable lipids according to the method of Example 27, was assessed by storing the LNPs at 4° C. and 25° C. At 1, 7, and 30 days post-manufacture, the size, PDI, and encapsulation efficiency (EE) of each mRNA-LNPs samples were measured using the methods described in Experimental Examples 2 and 3.

[6] = test system: CCL3 mRNA level in HEK-293T cells; conditions: human
[7] = test system: female C57BL/6 mice; assay: Protein expression efficiency of fLuc mRNA-LNPs after intramuscular injection (IVIS whole-body luminescence); type: in vivo; conditions: for Total flux 1 hour / Total flux 3 hours / Total flux 6 hours / Total flux 48 hours / Total flux 72 hours / Total flux: fLuc mRNA-LNP, intramuscular injection, luminescence at injection site, mice; for Total flux 1 hour: 1 hour after administration; for Total flux 3 hours: 3 hours after administration; for Total flux 6 hours: 6 hours after administration; for Total flux 48 hours: 48 hours after administration; for Total flux 72 hours: 72 hours after administration; for Total flux: after administration; for Fold increase in total flux at 3 h, MC3: relative to control LNP formulated with MC3; for Fold increase in total flux at 3 h, MC3 / Fold increase in total flux at 3 h, SM-102: 3 hours after intramuscular injection; for Fold increase in total flux at 3 h, SM-102: relative to control LNP formulated with SM-102
Description: fLuc mRNA-LNPs formulated using various ionizable lipids were prepared according to the method described in Example 27 and administered in vivo via intramuscular (I. M.) or intravenous (IV.) injection to compare the resulting protein expression efficiency in vivo. As a control, EGFP mRNA-LNPs formulated with commercially available ionizable lipids MC3 or SM-102 were used. All mRNA-LNPs were administered at equal mRNA doses per body weight across different concentration groups (n≥4).
Specifically, the dose of mRNA-LNPs was adjusted to 0.1-0.5 mg/kg of body weight, and the formulation was administered via I.M. or I.V. injection to female C57BL/6 mice (6-10 weeks old, Orient Bio, Korea) Subsequently, […], whole-body luminescence images were acquired using an in vivo imaging system (IVIS Lumina III, PerkinElmer, Walzam, MA, USA). To assess protein expression levels, 200 μL of D-luciferin (15 mg/mL) was administered via intraperitoneal (I.P.) injection 10 minutes prior to imaging. During image acquisition, the animals were anesthetized by inhalation of 3% isoflurane in 97% medical grade oxygen. In addition, the acquired luminescence images were quantitatively analyzed using imaging software (Living Image Software Version 4.4; PerkinElmer, USA).
After intramuscular injection of the fLuc mRNA-LNPs, the luminescence intensity at the injection site was measured over time.
Furthermore, the luminescence intensity at the injection site 3 hours after intramuscular injection was measured, and the relative protein expression efficiency was compared to that of control LNPs formulated with MC3 or SM-102.

[8] = mRNA encapsulation efficiency (Quant-IT RiboGreen RNA assay); type: physicochemical; conditions: mRNA encapsulation efficiency of mRNA-LNP made with the ionizable lipid; average of two measurements
Description: The mRNA encapsulation efficiency (EE, %) of LNPs containing mRNA was measured using the Quant-IT™ RiboGreen® RNA assay kit (Invitrogen, USA).
The diluted samples were added to each well of a 96-well plate. Group A (without Triton X-100) was supplemented with 50 μL of 1×TE buffer, while Group B (with Triton X-100) was supplemented with 50 μL of 1×TE buffer containing 2% Triton-X 100. To release the encapsulated mRNA, the LNPs were treated with Triton-X 100 and incubated at 37° C. for 10 minutes. Subsequently, 100 μL of ribogreen reagent was added to each well. The fluorescence intensities of Group A and Group B were measured using a multi-plate reader (λex 480 nm, λem 520 nm), and mRNA encapsulation efficiency (%) was calculated using Equation 1 below. The encapsulation efficiency for each LNP was determined as the average of two independent measurements.

Structure (SMILES): CCCCCCCCCCCOC(=O)CCCCCN(CCCCCCCC(=O)OC(CCCCCCCC)CCCCCCCC)CC(O)CCCCNC(=O)c1ccc[nH]1 (stereo not drawn) [Compound 16, Heptadecan-9-yl 8-((2-hydroxy-6-(1H-pyrrole-2-carboxamido)hexyl)(6-oxo-6-(undecyloxy)hexyl)amino)octanoate]
- IL-1β Average [1]: 0.74
- CCL2 Average [2]: 0.79
- PDI [3]: 0.101
- size (nm) Number [3]: 132 nm
- Zeta (mV) [3]: −7.87 mV
- IL-6 Average [4]: 0.97
- Normalized EE % D-1 ([5]; fLuc mRNA-LNP stored at 4° C.): 90.9%
- Size (nm) D-1 ([5]; fLuc mRNA-LNP stored at 4° C.): 132.2 nm
- Normalized EE % D-7 ([5]; fLuc mRNA-LNP stored at 4° C.): 91.5%
- PDI D-7 ([5]; fLuc mRNA-LNP stored at 4° C.): 0.138
- Size (nm) D-7 ([5]; fLuc mRNA-LNP stored at 4° C.): 137.1 nm
- Normalized EE % D-30 ([5]; fLuc mRNA-LNP stored at 4° C.): 86.9%
- PDI D-30 ([5]; fLuc mRNA-LNP stored at 4° C.): 0.069
- Size (nm) D-30 ([5]; fLuc mRNA-LNP stored at 4° C.): 141.5 nm
- Normalized EE % D-1 ([5]; fLuc mRNA-LNP stored at 25° C.): 90.9%
- PDI D-1 ([5]; fLuc mRNA-LNP stored at 25° C.): 0.101
- Size (nm) D-1 ([5]; fLuc mRNA-LNP stored at 25° C.): 132.2 nm
- Normalized EE % D-7 ([5]; fLuc mRNA-LNP stored at 25° C.): 89.1%
- PDI D-7 ([5]; fLuc mRNA-LNP stored at 25° C.): 0.059
- Size (nm) D-7 ([5]; fLuc mRNA-LNP stored at 25° C.): 137.7 nm
- Normalized EE % D-30 ([5]; fLuc mRNA-LNP stored at 25° C.): 84.4%
- PDI D-30 ([5]; fLuc mRNA-LNP stored at 25° C.): 0.093
- Size (nm) D-30 ([5]; fLuc mRNA-LNP stored at 25° C.): 145.1 nm
- CCL3 Average [6]: 2.31
- Total flux 1 hour [7]: 1.11E+07
- Total flux 3 hours [7]: 5.26E+07
- Total flux 6 hours [7]: 3.64E+07
- Total flux 48 hours [7]: 1.71E+06
- Total flux 72 hours [7]: 1.40E+06
- Total flux [7]: 1.61E+07
- Fold increase in total flux at 3 h, MC3 [7]: 4.26
- Fold increase in total flux at 3 h, SM-102 [7]: 0.47
- EE (%) [8]: 91%

Structure (SMILES): CCCCCCCCCCCOC(=O)CCCCCN(CCCCCCCC(=O)OC(CCCCCCCC)CCCCCCCC)CC(O)CCCCNC(=O)c1ccn(C)c1 (stereo not drawn) [Compound 19, Heptadecan-9-yl 8-((2-hydroxy-6-(1-methyl-1H-pyrrole-3-carboxamido)hexyl) (6-oxo-6-(undecyloxy)hexyl)amino)octanoate]
- IL-1β Average [1]: 1.07
- CCL2 Average [2]: 0.91
- PDI [3]: 0.193
- size (nm) Number [3]: 185 nm
- Zeta (mV) [3]: −5.68 mV
- IL-6 Average [4]: 0.89
- Normalized EE % D-1 ([5]; fLuc mRNA-LNP stored at 4° C.): 93.1%
- Size (nm) D-1 ([5]; fLuc mRNA-LNP stored at 4° C.): 184.7 nm
- Normalized EE % D-7 ([5]; fLuc mRNA-LNP stored at 4° C.): 90.6%
- PDI D-7 ([5]; fLuc mRNA-LNP stored at 4° C.): 0.122
- Size (nm) D-7 ([5]; fLuc mRNA-LNP stored at 4° C.): 161.2 nm
- Normalized EE % D-30 ([5]; fLuc mRNA-LNP stored at 4° C.): 87.2%
- PDI D-30 ([5]; fLuc mRNA-LNP stored at 4° C.): 0.071
- Size (nm) D-30 ([5]; fLuc mRNA-LNP stored at 4° C.): 177.4 nm
- Normalized EE % D-1 ([5]; fLuc mRNA-LNP stored at 25° C.): 93.1%
- PDI D-1 ([5]; fLuc mRNA-LNP stored at 25° C.): 0.193
- Size (nm) D-1 ([5]; fLuc mRNA-LNP stored at 25° C.): 184.7 nm
- Normalized EE % D-7 ([5]; fLuc mRNA-LNP stored at 25° C.): 88.1%
- PDI D-7 ([5]; fLuc mRNA-LNP stored at 25° C.): 0.107
- Size (nm) D-7 ([5]; fLuc mRNA-LNP stored at 25° C.): 172.5 nm
- Normalized EE % D-30 ([5]; fLuc mRNA-LNP stored at 25° C.): 88.3%
- PDI D-30 ([5]; fLuc mRNA-LNP stored at 25° C.): 0.159
- Size (nm) D-30 ([5]; fLuc mRNA-LNP stored at 25° C.): 171.7 nm
- CCL3 Average [6]: 1.04
- Total flux 1 hour [7]: 3.16E+07
- Total flux 3 hours [7]: 5.15E+07
- Total flux 6 hours [7]: 3.82E+07
- Total flux 48 hours [7]: 1.12E+06
- Total flux 72 hours [7]: 5.38E+05
- Total flux [7]: 8.29E+06
- Fold increase in total flux at 3 h, MC3 [7]: 4.17
- Fold increase in total flux at 3 h, SM-102 [7]: 0.46
- EE (%) [8]: 93%

Structure (SMILES): CCCCCCCCCCCOC(=O)CCCCCN(CCCCCCCC(=O)OC(CCCCCCCC)CCCCCCCC)CC(O)CCCCNC(=O)c1c[nH]c(O)n1 (stereo not drawn) [Compound 35, Heptadecan-9-yl 8-((2-hydroxy-6-(2-hydroxy-1H-imidazole-4-carboxamido)hexyl)(6-oxo-6-(undecyloxy)hexyl)amino)octanoate]
- IL-1β Average [1]: 0.91
- CCL2 Average [2]: 1.42
- PDI [3]: 0.040
- size (nm) Number [3]: 123 nm
- Zeta (mV) [3]: −3.90 mV
- IL-6 Average [4]: 1.14
- Normalized EE % D-1 ([5]; fLuc mRNA-LNP stored at 4° C.): 90.2%
- Size (nm) D-1 ([5]; fLuc mRNA-LNP stored at 4° C.): 123.4 nm
- Normalized EE % D-7 ([5]; fLuc mRNA-LNP stored at 4° C.): 83.7%
- PDI D-7 ([5]; fLuc mRNA-LNP stored at 4° C.): 0.089
- Size (nm) D-7 ([5]; fLuc mRNA-LNP stored at 4° C.): 130.3 nm
- Normalized EE % D-30 ([5]; fLuc mRNA-LNP stored at 4° C.): 88.6%
- PDI D-30 ([5]; fLuc mRNA-LNP stored at 4° C.): 0.127
- Size (nm) D-30 ([5]; fLuc mRNA-LNP stored at 4° C.): 141.3 nm
- Normalized EE % D-1 ([5]; fLuc mRNA-LNP stored at 25° C.): 90.2%
- PDI D-1 ([5]; fLuc mRNA-LNP stored at 25° C.): 0.040
- Size (nm) D-1 ([5]; fLuc mRNA-LNP stored at 25° C.): 123.4 nm
- Normalized EE % D-7 ([5]; fLuc mRNA-LNP stored at 25° C.): 85.3%
- PDI D-7 ([5]; fLuc mRNA-LNP stored at 25° C.): 0.098
- Size (nm) D-7 ([5]; fLuc mRNA-LNP stored at 25° C.): 133.3 nm
- Normalized EE % D-30 ([5]; fLuc mRNA-LNP stored at 25° C.): 88.3%
- PDI D-30 ([5]; fLuc mRNA-LNP stored at 25° C.): 0.076
- Size (nm) D-30 ([5]; fLuc mRNA-LNP stored at 25° C.): 123.8 nm
- CCL3 Average [6]: 2.30
- Total flux 1 hour [7]: 1.54E+07
- Total flux 3 hours [7]: 4.49E+07
- Total flux 6 hours [7]: 5.04E+07
- Total flux 48 hours [7]: 7.96E+05
- Total flux 72 hours [7]: 1.27E+06
- Total flux [7]: 6.12E+06
- Fold increase in total flux at 3 h, MC3 [7]: 3.64
- Fold increase in total flux at 3 h, SM-102 [7]: 0.40
- EE (%) [8]: 90%

Reference: patent US20260184669A1, “LIPID COMPOUND AND COMPOSITION FOR DELIVERY OF ACTIVE SUBSTANCE” (KOREA RESEARCH INSTIUTE OF BIOSCIENCE AND BIOTECHNOLOGY, priority 2022, published 2026)
